Drawing on patent publication US20250084074A1, “SUBSTITUTED HETEROCYCLES AS HSET INHIBITORS” (MERCK PATENT GMBH, priority 2022, published 2025), this text covers IC50 for 32 compounds.

pIC50: −log10 of the molar value.

The target of the assay is HSET full length protein (Homo sapiens (Human), UniProt Q9BW19). The experiment in a line: HSET ADP-Glo Assay S - 3 μM ATP. Format: biochemical. The following applies: 5 nM HSET, 70 μg/mL microtubule, 80 min at rt, read-out: COMBINED HSET ADP GLO IC50. The method in brief: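 Full-length human HSET (5 nM) with paclitaxel-stabilised bovine brain microtubules (70 μg/mL) in HEPES pH 6.8 buffer was preincubated 10 min with compound. ATP at 3 μM started the reaction, which ran 80 min at rt. ADP formed was measured by ADP-Glo luminescence.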
Chain of HSET full length protein (Q9BW19 whole entry): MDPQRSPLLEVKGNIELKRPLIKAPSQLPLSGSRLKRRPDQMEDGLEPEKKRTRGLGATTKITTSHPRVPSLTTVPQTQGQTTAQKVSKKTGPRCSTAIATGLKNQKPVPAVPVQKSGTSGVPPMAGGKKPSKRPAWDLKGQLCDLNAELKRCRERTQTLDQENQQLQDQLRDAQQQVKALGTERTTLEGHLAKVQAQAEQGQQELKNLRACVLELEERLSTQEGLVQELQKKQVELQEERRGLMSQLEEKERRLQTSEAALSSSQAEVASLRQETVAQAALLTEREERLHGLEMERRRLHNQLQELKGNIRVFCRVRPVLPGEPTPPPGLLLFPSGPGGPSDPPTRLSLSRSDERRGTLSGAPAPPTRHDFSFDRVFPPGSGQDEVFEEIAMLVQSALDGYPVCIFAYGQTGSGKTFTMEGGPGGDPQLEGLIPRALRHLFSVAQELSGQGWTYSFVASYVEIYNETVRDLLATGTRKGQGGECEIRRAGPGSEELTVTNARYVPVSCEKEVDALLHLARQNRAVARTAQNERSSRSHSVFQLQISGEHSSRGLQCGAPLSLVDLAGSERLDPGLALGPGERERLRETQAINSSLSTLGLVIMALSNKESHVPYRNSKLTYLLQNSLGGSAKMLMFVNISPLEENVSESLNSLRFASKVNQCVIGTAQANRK
Background: ADP-Glo first removes unused ATP, then detects ADP through luciferase.
Consider `Cc1nc(-c2ccc3ccnc(N[C@H]4C[C@@H](C(=O)Nc5nc(C)c(C(C)(C)C)s5)N(C)C4)c3c2)no1` [Example 236, (2S,4S)-N-(5-(tert-butyl)-4-methylthiazol-2-yl)-1-methyl-4-((7-(5-methyl-1,2,4-oxadiazol-3-yl)isoquinolin-1-yl)amino)pyrrolidine-2-carboxamide], for which the pIC50 (commonly the negative decadic logarithm of the IC50, by convention in mol/L) is 5.55.

As for `CCCOC(=O)c1sc(NC(=O)[C@@H]2C[C@H](Nc3nccc4ccc(-c5noc(C)n5)cc34)CN2C)nc1C` [Example 237, Propyl 4-methyl-2-((2S,4S)-1-methyl-4-((7-(5-methyl-1,2,4-oxadiazol-3-yl)isoquinolin-1-yl)amino)pyrrolidine-2-carboxamido)thiazole-5-carboxylate], the pIC50 was 7.00.

Turning to `CCCCCc1cc(NC(=O)[C@@H]2C[C@H](Nc3nccc4ccc(-c5noc(C)n5)cc34)CN2C)nn1C` [Example 238, (2S,4S)-1-methyl-4-((7-(5-methyl-1,2,4-oxadiazol-3-yl)isoquinolin-1-yl)amino)-N-(1-methyl-5-pentyl-1 H-pyrazol-3-yl)pyrrolidine-2-carboxamide], the pIC50 is 5.17.

Take `CCCOC(=O)c1sc(NC(=O)[C@@H]2C[C@H](Nc3nccc4ccc(-c5noc(C)n5)cc34)CN2)nc1C` [Example 239, Propyl 4-methyl-2-((2S,4S)-4-((7-(5-methyl-1,2,4-oxadiazol-3-yl)isoquinolin-1-yl)amino)pyrrolidine-2-carboxamido)thiazole-5-carboxylate]: the pIC50 is 6.92.

For the compound `CCCOC(=O)c1sc(C(=O)N2CC[C@H](NC(=O)c3cccc(-c4noc(C)n4)c3)C2)nc1C` [Example 240, Propyl (S)-4-methyl-2-(3-(3-(5-methyl-1,2,4-oxadiazol-3-yl)benzamido)pyrrolidine-1-carbonyl)thiazole-5-carboxylate], the negative-log IC50 (pIC50) is 7.01.

On to `CCCOC(=O)c1sc(C(=O)N2CC[C@H](NC(=O)c3cccc(-c4nnn(C)n4)c3)C2)nc1C` [Example 242, Propyl 4-methyl-2-[(3S)-3-[[3-(2-methyltetrazol-5-yl)benzoyl]amino]pyrrolidine-1-carbonyl]thiazole-5-carboxylate], for which the negative-log IC50 (pIC50) is 7.52.

For the compound `CCCOC(=O)c1sc(C(=O)N2CC[C@H](Nc3nccc4ccc(-c5noc(C)n5)cc34)C2)nc1C` [Example 243, Propyl (S)-4-methyl-2-(3-((7-(5-methyl-1,2,4-oxadiazol-3-yl)isoquinolin-1-yl)amino)pyrrolidine-1-carbonyl)thiazole-5-carboxylate], the negative-log IC50 (pIC50) is 7.96.

In the case of `CCCOC(=O)c1sc(C(=O)N2CC[C@@H](Nc3nccc4ccc(-c5noc(C)n5)cc34)C2)nc1C` [Example 244, Propyl (R)-4-methyl-2-(3-((7-(5-methyl-1,2,4-oxadiazol-3-yl)isoquinolin-1-yl)amino)pyrrolidine-1-carbonyl)thiazole-5-carboxylate], the negative-log IC50 (pIC50) was 6.22.

Consider `CCCOC(=O)c1cc(C(=O)N2CC[C@H](Nc3nccc4ccc(-c5noc(C)n5)cc34)C2)nn1C` [Example 245, Propyl (S)-1-methyl-3-(3-((7-(5-methyl-1,2,4-oxadiazol-3-yl)isoquinolin-1-yl)amino)pyrrolidine-1-carbonyl)-1 H-pyrazole-5-carboxylate], for which the pIC50 was 5.13.

On to `Cc1nc(-c2ccc3ccnc(N[C@H]4CCN(C(=O)c5nc(C)c(C(C)(C)C)s5)C4)c3c2)no1` [Example 246, (S)-(5-(tert-butyl)-4-methylthiazol-2-yl)(3-((7-(5-methyl-1,2,4-oxadiazol-3-yl)isoquinolin-1-yl)amino)pyrrolidin-1-yl)methanone], for which the negative logarithm of the IC50 (pIC50) was 5.76.

`Cc1nc(-c2ccc3ccnc(N[C@H]4CCN(C(=O)c5cc(C6CC6)n(C)n5)C4)c3c2)no1` [Example 247, (S)-(5-cyclopropyl-1-methyl-1 H-pyrazol-3-yl)(3-((7-(5-methyl-1,2,4-oxadiazol-3-yl)isoquinolin-1-yl)amino)pyrrolidin-1-yl)methanone]: the negative-log IC50 (pIC50) is 4.87.

Consider `Cc1nc(-c2ccc3ccnc(N[C@H]4CCN(C(=O)c5cc(-c6ccccc6)n(C)n5)C4)c3c2)no1` [Example 248, (S)-(3-((7-(5-methyl-1,2,4-oxadiazol-3-yl)isoquinolin-1-yl)amino)pyrrolidin-1-yl)(1-methyl-5-phenyl-1 H-pyrazol-3-yl)methanone], for which the pIC50 is 5.38.

Regarding `Cc1nc(-c2ccc3ccnc(N[C@H]4CCN(C(=O)c5cc(C(C)C)n(C)n5)C4)c3c2)no1` [Example 249, (S)-(5-isopropyl-1-methyl-1 H-pyrazol-3-yl)(3-((7-(5-methyl-1,2,4-oxadiazol-3-yl)isoquinolin-1-yl)amino)pyrrolidin-1-yl)methanone], the negative logarithm of the IC50 (pIC50) was 4.84.

With `Cc1nc(-c2ccc3ccnc(N[C@H]4CCN(C(=O)c5cnc[nH]5)C4)c3c2)no1` [Example 250, (S)-(1 H-imidazol-5-yl)(3-((7-(5-methyl-1,2,4-oxadiazol-3-yl)isoquinolin-1-yl)amino)pyrrolidin-1-yl)methanone], the negative logarithm of the IC50 (pIC50) was 5.02.

Regarding `Cc1cc(C(=O)N2CC[C@H](Nc3nccc4ccc(-c5noc(C)n5)cc34)C2)no1` [Example 251, (5-Methylisoxazol-3-yl)-[(3S)-3-[[7-(5-methyl-1,2,4-oxadiazol-3-yl)-1-isoquinolyl]amino]pyrrolidin-1-yl]methanone], the negative-log IC50 (pIC50) was 5.25.

Take `Cc1nc(-c2ccc3ccnc(N[C@H]4CCN(C(=O)c5cnn(C(C)(C)C)c5)C4)c3c2)no1` [Example 252, (1-tert-Butylpyrazol-4-yl)-[(3S)-3-[[7-(5-methyl-1,2,4-oxadiazol-3-yl)-1-isoquinolyl]amino]pyrrolidin-1-yl]methanone]: the pIC50 is 4.78.

For the compound `Cc1nc(-c2ccc3ccnc(N[C@H]4CCN(C(=O)c5cc(C(C)C)[nH]n5)C4)c3c2)no1` [Example 253, (S)-(5-isopropyl-1 H-pyrazol-3-yl)(3-((7-(5-methyl-1,2,4-oxadiazol-3-yl)isoquinolin-1-yl)amino)pyrrolidin-1-yl)methanone], the pIC50 is 5.47.

Turning to `Cc1nc(-c2ccc3ccnc(N[C@H]4CCN(C(=O)c5cc(C(C)(C)C)[nH]n5)C4)c3c2)no1` [Example 254, (S)-(5-(tert-butyl)-1 H-pyrazol-3-yl)(3-((7-(5-methyl-1,2,4-oxadiazol-3-yl)isoquinolin-1-yl)amino)pyrrolidin-1-yl)methanone], the pIC50 was 5.21.

`CCCOC(=O)c1sc(C(=O)N2CC[C@@H](Nc3nccc4ccc(-c5noc(C)n5)cc34)[C@@H]2C)nc1C` [Example 255, Propyl 4-methyl-2-((2S,3R)-2-methyl-3-((7-(5-methyl-1,2,4-oxadiazol-3-yl)isoquinolin-1-yl)amino)pyrrolidine-1-carbonyl)thiazole-5-carboxylate]: the pIC50 is 7.57.

Consider `CCCOC(=O)c1sc(C(=O)N2C[C@@H](F)[C@H](Nc3nccc4ccc(-c5noc(C)n5)cc34)C2)nc1C` [Example 256, propyl 2-((3R,4R)-3-fluoro-4-((7-(5-methyl-1,2,4-oxadiazol-3-yl)isoquinolin-1-yl)amino)pyrrolidine-1-carbonyl)-4-methylthiazole-5-carboxylate], for which the pIC50 was 7.70.

For `CCCOC(=O)n1cc(NC(=O)CCNc2nccc3ccc(-c4noc(C)n4)cc23)nc1C` [Example 257, Propyl 2-methyl-4-(3-{[7-(5-methyl-1,2,4-oxadiazol-3-yl)isoquinolin-1-yl]amino}propanamido)-1 H-imidazole-1-carboxylate], the pIC50 was 7.33.

Turning to `Cc1nc(-c2ccc3ccnc(NCCC(=O)Nc4cn(C(=O)OC(C)C)c(C)n4)c3c2)no1` [Example 258, Propan-2-yl 2-methyl-4-(3-{[7-(5-methyl-1,2,4-oxadiazol-3-yl)isoquinolin-1-yl]amino}propanamido)-1 H-imidazole-1-carboxylate], the negative logarithm of the IC50 (pIC50) was 6.68.

Regarding `CCOC(=O)n1cc(NC(=O)CCNc2nccc3ccc(-c4noc(C)n4)cc23)nc1C` [Example 259, Ethyl 2-methyl-4-(3-{[7-(5-methyl-1,2,4-oxadiazol-3-yl)isoquinolin-1-yl]amino}propanamido)-1 H-imidazole-1-carboxylate], the pIC50 is 6.27.

Regarding `CCCOC(=O)n1cnc(NC(=O)CCNc2nccc3ccc(-c4noc(C)n4)cc23)c1` [Example 260, Propyl 4-(3-{[7-(5-methyl-1,2,4-oxadiazol-3-yl)isoquinolin-1-yl]amino}propanamido)-1 H-imidazole-1-carboxylate], the pIC50 is 6.85.

On to `CCOC(=O)n1cc(NC(=O)CCNc2nccc3ccc(-c4cnn(C)c4)cc23)nc1C` [Example 261, Ethyl 2-methyl-4-(3-{[7-(1-methyl-1 H-pyrazol-4-yl)isoquinolin-1-yl]amino}propanamido)-1 H-imidazole-1-carboxylate], for which the pIC50 was 4.89.

In the case of `CCCOC(=O)n1cc(NC(=O)CCNc2nccc3ccc(-c4cnn(C)c4)cc23)nc1C` [Example 262, Propyl 2-methyl-4-(3-{[7-(1-methyl-1 H-pyrazol-4-yl)isoquinolin-1-yl]amino}propanamido)-1 H-imidazole-1-carboxylate], the negative logarithm of the IC50 (pIC50) was 6.00.

Regarding `CCCOC(=O)n1cc(NC(=O)CCNC(=O)c2cccc(-c3noc(C)n3)c2)nc1C` [Example 263], the pIC50 was 6.70.

For `Cc1nc(-c2cccc(C(=O)NCCC(=O)Nc3cn(C(=O)OC(C)C)c(C)n3)c2)no1` [Example 264], the pIC50 is 6.55.

Consider `CCOC(=O)n1cc(NC(=O)CCNC(=O)c2cccc(-c3noc(C)n3)c2)nc1C` [Example 265], for which the pIC50 is 5.65.

Consider `CCCOC(=O)n1cnc(NC(=O)CCNC(=O)c2cccc(-c3noc(C)n3)c2)c1` [Example 266, Propyl 4-(3-{[3-(5-methyl-1,2,4-oxadiazol-3-yl)phenyl]formamido}-propanamido)-1 H-imidazole-1-carboxylate], for which the negative logarithm of the IC50 (pIC50) was 5.47.

As for `CCCOC(=O)n1cc(NC(=O)[C@@H](O)CNC(=O)c2cccc(-c3cnn(C)c3)c2)nc1C` [Example 267], the pIC50 is 6.42.

`CCCOC(=O)n1cc(NC(=O)[C@H](O)CNC(=O)c2cccc(-c3cnn(C)c3)c2)nc1C` [Example 268]: the pIC50 was 6.02.
